From patent US20180110754A1, “CENICRIVIROC FOR THE TREATMENT OF FIBROSIS” (Tobira Therapeutics, Inc., priority 2015, published 2018)

Test system: MCP-1
Assay: Study 201: MCP-1, hs-CRP and IL-6 levels
Assay type: in vivo, human
Protocol: Participants were required to be antiretroviral treatment-experienced, CCR5 antagonist-naive, with HIV-1 RNA levels of at least 5000 copies/mL and CD4+ cell counts of at least 250 cells/mm^3 was performed.
Exploratory assessment of changes in MCP-1 (a ligand of CCR2, which is a chemokine co-receptor expressed on pro-inflammatory monocytes, also known as CCL2), hs-CRP, and IL-6 were performed and significant dose-dependent increases in MCP-1 were observed (Table 23).

CCCCOCCOc1ccc(-c2ccc3c(c2)/C=C(/C(=O)Nc2ccc([S@@+]([O-])Cc4cncn4CCC)cc2)CCCN3CC(C)C)cc1 [CVC, (S)-8-[4-(2-Butoxyethoxy)phenyl]-1-isobutyl-N-(4-{[(1-propyl-1H-imidazol-5-yl)methyl]sulfinyl}phenyl)-1,2,3,4-tetrahydro-1-benzazocine-5-carboxamide]
Effect on hs-CRP or IL-6 levels (10-day study, overall): no effect | MCP-1 Baseline, Mean (CVC 25 mg): 20.0 pg/mL | MCP-1 Baseline, Median (CVC 25 mg): 16.0 pg/mL | MCP-1 Baseline, Range (CVC 25 mg): 7 to 44 pg/mL | MCP-1 Change from Baseline to Day 10, Median (CVC 25 mg): +25.0 pg/mL | MCP-1 Day 10, Mean (CVC 25 mg): 75.3 pg/mL | MCP-1 Day 10, Median (CVC 25 mg): 39.0 pg/mL | MCP-1 Day 10, Range (CVC 25 mg): 10 to 287 pg/mL | MCP-1 Baseline, Mean (CVC 50 mg): 12.6 pg/mL | MCP-1 Baseline, Median (CVC 50 mg): 6.0 pg/mL | MCP-1 Baseline, Range (CVC 50 mg): 5 to 37 pg/mL | MCP-1 Change from Baseline to Day 10, Median (CVC 50 mg): +56.0 pg/mL | MCP-1 Day 10, Mean (CVC 50 mg): 101.3 pg/mL | MCP-1 Day 10, Median (CVC 50 mg): 65.0 pg/mL | MCP-1 Day 10, Range (CVC 50 mg): 21 to 266 pg/mL | MCP-1 Baseline, Mean (CVC 75 mg): 26.6 pg/mL | MCP-1 Baseline, Median (CVC 75 mg): 8.0 pg/mL | MCP-1 Baseline, Range (CVC 75 mg): 5 to 92 pg/mL | MCP-1 Change from Baseline to Day 10, Median (CVC 75 mg): +36.0 pg/mL | MCP-1 Day 10, Mean (CVC 75 mg): 59.1 pg/mL | MCP-1 Day 10, Median (CVC 75 mg): 43.5 pg/mL | MCP-1 Day 10, Range (CVC 75 mg): 20 to 128 pg/mL | MCP-1 Baseline, Mean (CVC 150 mg): 31.6 pg/mL | MCP-1 Baseline, Median (CVC 150 mg): 19.5 pg/mL | MCP-1 Baseline, Range (CVC 150 mg): 8 to 82 pg/mL | MCP-1 Change from Baseline to Day 10, Median (CVC 150 mg): +322.0 pg/mL | MCP-1 Day 10, Mean (CVC 150 mg): 372.0 pg/mL | MCP-1 Day 10, Median (CVC 150 mg): 368.0 pg/mL | MCP-1 Day 10, Range (CVC 150 mg): 79 to 605 pg/mL
